# Laboratory results taken from patent publication US11195594B2, “Method for selecting anticancer agent based on protein damage information of individual to prevent anticancer agent side effects” (CIPHEROME, INC., priority 2015, dated 2021).
# Experiment: Side effect profile of pediatric leukemia patients during busulfan preconditioning for bone marrow transplantation
# Format: in vivo, human
# Description: Firstly, an analysis was conducted on 146 pediatric leukemia patients showing warning signs of serious side effects during treatment with the anticancer agent busulfan (Myleran, GlaxoSmithKline, Busulfex IV, Otsuka America Pharmaceutical, Inc.) to remove bone marrow as a preconditioning for bone marrow transplantation.
# [1] = of 146 pediatric leukemia patients treated with busulfan
compound,measurement,setting,value
CS(=O)(=O)OCCCCOS(C)(=O)=O [Busulfan],Number of patients: AUC 170 or higher,"human, in vivo",71
same,Number of patients: Hepatic veno-occlusive disease,"human, in vivo",18
same,Number of patients: Intermediate toxicity grade 3 or higher,"human, in vivo",11
same,Number of patients: Intermediate toxicity grade 4 or higher,"human, in vivo",1
same,Number of patients: Short-term toxicity grade 3 or higher,"human, in vivo",31
same,Number of patients: Short-term toxicity grade 4 or higher,"human, in vivo",2
same,Number of patients: Death,[1],36
same,Number of patients: Toxicity-related death,[1],22
